The data set has as its system A431 cells. Put plainly: Apoptosis, annexin V/propidium iodide (AV/PI) test. It is filed as cell-based, human. The following applies: 12 h; for death by targeted apoptosis of mutated cancer cells: A431 vs HEK001, linalool 320 nL/mL, carvacrol 60 nL/mL, thymol 30 nL/mL; for cytotoxic efficacy compared with the complex essential oils: concentrations equal to those present in the essential oil treatments. The procedure:
These three molecules were incubated for 12 h with non-mutated immortalized keratinocytes (HEK001) and mutated cancerous keratinocytes (A431). The percentage of cells in apoptosis was measured by the annexin V/propidium iodide test. The concentrations of the molecules used were equal to those present during the treatments with the essential oils. Example: the concentration of linalool used here represents the equivalent of 80% of linalool present in the essential oil of rosewood.
Annexin V/Propidium Iodide Test:
One of the markers for apoptosis is the translocation of phosphatidyl-serine from the internal face towards the external face of the plasma membrane (translocation, allowing apoptotic bodies to be recognized and phagocyted by the macrophages).
The AV/PI test can be used to detect this event because of the affinity of the protein annexin V for phosphatidyl-serine. Propidium iodide, which targets DNA, can be used to distinguish early apoptotic cells from cells in late apoptosis and/or in necrosis.
After the desired treatment time, the medium was eliminated, the cells were harvested (by trypsinization), centrifuged and rinsed in 4 mL of PBS 1×. Tagging was carried out following the instructions of the manufacturer (Kit Vybrant, Molecular Probe). The cells were rapidly taken up in 100 μl of tagging buffer, to which 6 μl of annexin V and 3 μg/mL of propidium iodide per sample was added. The cells were then incubated for 30 min in the dark (at ambient temperature). Four hundred μL of tagging buffer was added before measuring the fluorescence of the annexin V (at 530 nm) and of the propidium iodide (at 610 nm).

Structures are written as SMILES.

With `Cc1ccc(C(C)C)cc1O` [carvacrol], the “death by targeted apoptosis of mutated cancer cells” value (“death by targeted apoptosis” below) is “qualitatively conserved” and the “cytotoxic efficacy compared with the complex essential oils” value is given as “lower than with complex essential oils”. Moreover, the “apoptotic A431 cells” value (60 nL/mL) is roughly 25%.

In the case of `C=CC(C)(O)CCC=C(C)C` (centres unmarked) [linalool], the “death by targeted apoptosis” value is “qualitatively conserved” and the “cytotoxic efficacy compared with the complex essential oils” value is “lower than with complex essential oils”.

As for `Cc1ccc(C(C)C)c(O)c1` [thymol], the “death by targeted apoptosis” value is listed as “qualitatively conserved” and the “cytotoxic efficacy compared with the complex essential oils” value is reported as “lower than with complex essential oils”. In addition, the “apoptotic A431 cells” value (30 nL/mL) is reported as “approximately 15%”.

These data come from patent US9040103B2, “Use of essential oil of oregano and of rosewood, or constituents thereof, in the therapeutic treatment of keratoses” (L'Oreal, priority 2010, dated 2015).
